From patent US20240308991A1, “PROCESS FOR THE SYNTHESIS OF REACTIVE CAR[…] ANTIGEN […] C[…] A CARRIER MATERIAL” (KORANEX CAPITAL, priority 2021, published 2024) come the findings set out here.

The structures appear in SMILES notation.

As a reminder, the melting point is the temperature, or range, at which the solid turns liquid.

`C=CCO[C@H]1O[C@H](CO)[C@H](O)[C@H](O[C@@H]2O[C@H](CO)[C@H](O)[C@H](O)[C@H]2O)[C@H]1NC(C)=O` registered a melting point of 230 to 232 °C.
